Reference: article PMC12440775 (Frontiers in Pharmacology, 2025)
Like-named read-outs stand apart in the source and are kept apart here.

Assays:
[1] = HCV-infected patients, ref Huang et al., cited from earlier work
[2] = Single ascending dose plasma pharmacokinetics (Part 1); format: in vivo, human; details: for half-life / AUC(0-inf) / Cmax / Tmax / AUC(0-t) / Vd/F: male, human, plasma; for Vd/F: read-out: Vz/F
Description: One dose level was tested within each group. Subject groups were dosed and evaluated sequentially, beginning with the lowest-dose group and proceeding stepwise to the highest-dose group.
Blood samples were taken pre-dose (0) and at prespecified time points after dosing (Figure 1). At each time point, approximately 4.9 mL of blood was drawn into evacuated collection tubes, containing ethylene diamine tetraacetate (EDTA) anticoagulant and labeled with sample identification information. The EDTA-anticoagulated blood samples were immediately placed on ice and centrifuged at 4 °C and approximately 2000–4,000 g for approximately 10 min in a refrigerated centrifuge as soon as possible after collection. The harvested plasma was split into two aliquots, immediately placed in appropriately labeled tubes, and stored at −20 °C or below until shipment.
Standard formulas for non-compartmental pharmacokinetic analysis provided by WinNonlin were used in determination of the maximum concentration (Cmax), time to maximum concentration (tmax), oral clearance (CL/F), mean residence time (MRTpo), and apparent volume distribution in terminal phase (Vz/F). The area under the plasma concentration–time curve (AUC) was calculated using a linear up/log down trapezoidal algorithm. The predicted concentration at the last time-point with quantifiable concentration was used for extrapolation of AUC. The fraction excreted as unchanged drug in urine (fe) was calculated as the percentage of the amount of drug excreted in urine as unchanged drug (Aet1–t2) compared to the administered dose ([Huang et al., 2008b]).
The power model was used for the analysis of dose proportionality in terms of AUC0– ∞ and Cmax. The model is described using the following equation: Ykm = α•Dk ^β •ekm. […] Dose linearity requires that β equals 1. […] Statistical analysis was performed using the SAS® program system (version 8.2, Cary, NC) ([Huang et al., 2008b]).

## C=C[C@@H]1C[C@]1(NC(=O)[C@@H]1C[C@@H](Oc2cc(-c3csc(NC(=O)C(C)C)n3)nc3c(Br)c(OC)ccc23)CN1C(=O)[C@@H](NC(=O)OC1CCCC1)C(C)(C)C)C(=O)O [FDV, Faldaprevir]
[1]; 2016
  FDV exposure at 240 mg compared to the 120-mg dose, based on trough concentrations: approximately 5 fold
[1]; 2021
  FDV exposure at 240 mg compared to the 120-mg dose, based on AUC0–24,ss: up to 7 fold
[2]; higher-dose groups
  Inter-subject variability, gCV of AUC0–∞: 60–80%
[2]; oral, range over single doses of 4–1,200 mg, read-out: gMean t1/2
  half-life: 15.5 to 39.2 h
[2]; oral, range over single doses of 4–1,200 mg, read-out: geometric mean (gMean) AUC0-inf
  AUC(0-inf): 254 to 402000 ng·h/mL
[2]; oral, range over single doses of 4–1,200 mg, read-out: geometric mean (gMean) Cmax
  Cmax: 3.57 to 16500 ng/mL
[2]; oral, range over single doses of 4–1,200 mg, read-out: median tmax
  Tmax: 4 to 14 h
[2]; po, 4 mg
  AUC(0-t): 201 ng·h/mL
  Vd/F: 868 L
[2]; po, 4 mg, FDV 4 mg single oral dose, fasted, gMean (gCV%), read-out: t½ (converted)
  half-life: ~39 h
[2]; po, 4 mg, read-out: AUC0–∞
  AUC(0-inf): 254 ng·h/mL
[2]; po, 4 mg, read-out: Cmax
  Cmax: 3.6 ng/mL
[2]; po, 4 mg, read-out: tmax
  Tmax: 14 h
[2]; po, 16 mg
  AUC(0-t): 1030 ng·h/mL
  Vd/F: 600 L
[2]; po, 16 mg, FDV 16 mg single oral dose, fasted, gMean (gCV%), read-out: t½ (converted)
  half-life: 31.8 h
[2]; po, 16 mg, read-out: Cmax
  Cmax: 22.8 ng/mL
[2]; po, 16 mg, read-out: tmax
  Tmax: 8 h
[2]; po, 48 mg
  AUC(0-t): 3280 ng·h/mL
  Vd/F: 640 L
[2]; po, 48 mg, FDV 48 mg single oral dose, fasted, gMean (gCV%), read-out: t½ (converted)
  half-life: 37.7 h
[2]; po, 48 mg, read-out: AUC0–∞
  AUC(0-inf): 3980 ng·h/mL
[2]; po, 48 mg, read-out: Cmax
  Cmax: 86.6 ng/mL
[2]; po, 48 mg, read-out: tmax
  Tmax: 8 h
[2]; po, 120 mg
  AUC(0-t): 9660 ng·h/mL
  Vd/F: 435 L
[2]; po, 120 mg, FDV 120 mg single oral dose, fasted, gMean (gCV%), read-out: t½ (converted)
  half-life: 27.4 h
[2]; po, 120 mg, read-out: AUC0–∞
  AUC(0-inf): 10700 ng·h/mL
[2]; po, 120 mg, read-out: Cmax
  Cmax: 344 ng/mL
[2]; po, 120 mg, read-out: tmax
  Tmax: 7 h
[2]; po, 240 mg
  AUC(0-t): 36100 ng·h/mL
  Vd/F: 200 L
[2]; po, 240 mg, FDV 240 mg single oral dose, fasted, gMean (gCV%), read-out: t½ (converted)
  half-life: 22.2 h
[2]; po, 240 mg, read-out: AUC0–∞
  AUC(0-inf): 37400 ng·h/mL
[2]; po, 240 mg, read-out: Cmax
  Cmax: 2070 ng/mL
[2]; po, 240 mg, read-out: tmax
  Tmax: 4 h
[2]; po, 480 mg
  AUC(0-t): 74100 ng·h/mL
  Vd/F: 278 L
[2]; po, 480 mg, FDV 480 mg single oral dose, fasted, gMean (gCV%), read-out: t½ (converted)
  half-life: 33.3 h
[2]; po, 480 mg, read-out: AUC0–∞
  AUC(0-inf): 80700 ng·h/mL
[2]; po, 480 mg, read-out: Cmax
  Cmax: 4300 ng/mL
[2]; po, 480 mg, read-out: tmax
  Tmax: 4 h
[2]; po, 800 mg
  AUC(0-t): 127000 ng·h/mL
  Vd/F: 141 L
[2]; po, 800 mg, FDV 800 mg single oral dose, fasted, gMean (gCV%), read-out: t½ (converted)
  half-life: ~16 h
[2]; po, 800 mg, read-out: AUC0–∞
  AUC(0-inf): 128000 ng·h/mL
[2]; po, 800 mg, read-out: Cmax
  Cmax: 6630 ng/mL
[2]; po, 800 mg, read-out: tmax
  Tmax: 9 h
[2]; po, 1200 mg
  AUC(0-t): 397000 ng·h/mL
  Vd/F: 65 L
[2]; po, 1200 mg, FDV 1,200 mg single oral dose, fasted, gMean (gCV%), read-out: t½ (converted)
  half-life: ~16 h
[2]; po, 1200 mg, read-out: AUC0–∞
  AUC(0-inf): 402000 ng·h/mL
[2]; po, 1200 mg, read-out: Cmax
  Cmax: 16500 ng/mL
[2]; po, 1200 mg, read-out: tmax
  Tmax: 8 h
[2]; most of the lower-dose groups
  Inter-subject variability, gCV of AUC0–∞: approximately 30%
